Measured values from patent publication US6495673B1, “Method for isolating the DNA encoding an enzyme” (Medical Research Council, priority 1996, dated 2002).
Each block holds one substance with its values, some of them ahead of it. No end group written: not given here. *: point of attachment. Biotin = O=C1N[C@H]2[C@H](CS[C@H]2CCCCC(=O)*)N1

Experiments:
[1] = molecular target: T1, calmodulin-tagged phage DN323 (Homo sapiens, UniProt P0DP23); assay: Competition assay of (calmodulin-tagged phage)/(biotin-peptide) complex with 1000-fold excess unlabeled peptide, ELISA; type: binding; settings: 1000-fold molar excess of non-biotinylated peptide
T1 construct: made in house; host or cells: E. coli (phage production)
Description: A 10^−8 M solution of a biotinylated calmodulin-binding peptide ([…] or […]; Montigiani et al., 1996) was added to calmodulin-tagged phage preparations (10^12 transforming units/ml) in TBSC and incubated for 10 minutes. To the resulting mixture, aliquoted in different tubes, unlabeled […] peptide in 1000-fold molar excess (10^−5 M) was added at different times. The fraction of phage particles in which the biotinylated peptide had been replaced by the unlabeled peptide was then determined by ELISA as described above.
The results of a competition assay of (calmodulin-tagged phage DN323)/(biotin-peptide) complex with a 1000-fold molar excess of non-biotinylated calmodulin-binding peptide, detected by ELISA are illustrated in FIG. 5. Squares: […]; circles, CAAARAXKNFIAVSAANRFKKIS.

calmodulin = calmodulin (Homo sapiens, UniProt P0DP23); settings: cited from earlier work
[2] = molecular target: T1, calmodulin-tagged phage DN323; assay: Stability of (calmodulin-tagged phage)/peptide complex to PEG precipitation, ELISA; type: binding; settings: 20% PEG 6000 + 2.5M NaCl, 1 hour on ice
Description: Stability of (calmodulin-tagged phage)/peptide complexes to PEG precipitation was checked as follows. A 10^−8M solution (final concentration) of a biotinylated calmodulin-binding peptide […] was added to 1 ml of calmodulin-tagged phage (10^12 transforming unit/ml) in TBSC and incubated for 10 minutes. To this solution, 20% polyethyleneglycol (Mw6000) +2.5M NaCl was added (200 μl ) and the resulting mixture was incubated on ice for 1 hour, then centrifuged on a bench centrifuge (13,000 rpm; 5 minutes).
The pellet was resuspended in 1 ml of TBSC. The titre of the phage solutions before and after PEG precipitation were then determined. The fraction of phage particles that were still peptide-bound after the PEG precipitation procedure was evaluated by ELISA, using a streptavidin-coated plate (see above).
The difference in ELISA binding activity between the sample before (1) and after (2) PEG precipitation corresponds to a small loss in phage titre, as determined by E. coli infection and titration. In sample 3, 2% milk in TBSC was used instead of phage.

[3] = tested on: LUCK+ peptide substrate / GST-SH2 fusion; assay: Selection of lck tyrosine kinase phage by capture of phosphorylated peptide on GST-SH2; type: biochemical, murine; settings: LUCK- peptide instead of LUCK+, all three phages
Description: As affinity capture reagent a GST-fusion of the N-terminal SH2 domain of PI 3-kinase was used, subcloned in pGEX vector (Pharmacia) and affinity-purified on glutathione agarose. The GST-SH2 fusion was coated on Nunc Immunotubes (4 ml; 100 μg/ml in PBS) at room temperature overnight. The tubes were then washed and incubated for 2 hours with 3% BSA in phosphorylation buffer (30 mM HEPES, pH 7.4, 150 mM NaCl, 12 mM MgCl2, 1 mM sodium vanadate, 1 mM CaCl2).
ATP was then added to a final concentration of 100 μM. After one minute, the mixtures were loaded onto separate GST-SH2-coated immunotubes and incubated for 30 minutes. The tubes were then washed 10 times with TBS +1 mM CaCl2 (TBSC) +0.1% Tween-20 and 10 times with TBSC. The phage bound to the tube via the phosphorylated peptide was specifically eluted with 1 ml 10 mM EGTA in PBS (Neri et al., 1995) that causes dissociation of the peptide ligand from calmodulin present in the fusion protein presented on the phage.
The eluted phage was used to infect exponentially growing TG1 E. coli cells according to standard procedures (Nissim et al., 1994), then plated on selective ampicillin-glucose-TY plates. Ampicillin-resistant transformants were counted and used to calculate the titre of the phage recovered in the selection procedure.

- koff [1]: < 10^−1 s^−1
- time for which complex with calmodulin-tagged phage is stable [1]: more than 2 hours
Substance: CAAARWKKAFIAVSAANRFKKIS
- Kd (calmodulin): 2.2 pM

Substance: Biotin-CAAARWKKAFIAVSAANRFKKIS
- stability of calmodulin/peptide complex upon PEG precipitation [2]: stable even after PEG precipitation

- phage titres recovered [3]: low phage titres
Substance: EPQFEEIGAARWKKAFIAVSNMFKKIS [LUCK-]
